Drawing on ChEMBL document CHEMBL1132901, “Synthesis and structure-activity relationships of quaternary ammonium cephalosporins with 3-pyrazolylpyridinium derivatives” (2000), this text covers MIC for three molecules.

Each structure is given as a SMILES string. ≈ marks a conversion by molar mass, not a printed value.

In assay [1] the test system is Enterococcus faecium. The assay is described as follows: In vitro antimicrobial activity against Streptococcus faecium MD 8b. Type of assay: functional.
Assay [2] relates to Pseudomonas aeruginosa. The assay is described as follows: In vitro antimicrobial activity against Pseudomonas aeruginosa 1771 M. Format: functional.
Assay [3] concerns Pseudomonas aeruginosa. The assay is described as follows: In vitro antimicrobial activity against Pseudomonas aeruginosa 9027. Format: functional.
Assay [4] has as its system Streptococcus pyogenes. Description: In vitro antimicrobial activity against Streptococcus pyogenes SG 511. Type of assay: functional.
Assay [5] deals with Escherichia coli. Description: In vitro antimicrobial activity against Escherichia coli 1507E. Type of assay: functional.
Assay [6] deals with Escherichia coli. Description: In vitro antimicrobial activity against Escherichia coli DC 0. Format: functional.
The test system of assay [7] is Streptococcus pyogenes. Description: In vitro antimicrobial activity against Streptococcus pyogenes 77A. Type of assay: functional.
Assay [8] relates to Staphylococcus aureus. Description: In vitro antimicrobial activity against Staphylococcus aureus 285. Type of assay: functional.
For assay [9], the system named is Pseudomonas aeruginosa. Description: In vitro antimicrobial activity against Pseudomonas aeruginosa 1771. Type of assay: functional.
In assay [10] the test system is Escherichia coli. The assay is described as follows: In vitro antimicrobial activity against Escherichia coli 055. Type of assay: functional.
Assay [11] has as its system Staphylococcus aureus. Description: In vitro antimicrobial activity against Staphylococcus aureus 503. Type of assay: functional.
The subject of assay [12] is Escherichia coli. Description: In vitro antimicrobial activity against Escherichia coli TEM. Type of assay: functional.
Assay [13] deals with Enterobacter cloacae. The assay is described as follows: In vitro antimicrobial activity against Enterobacter cloacae P99. Format: functional.
Assay [14] has as its system Salmonella typhimurium. The assay is described as follows: In vitro antimicrobial activity against Salmonella Typhimurium. Format: functional, Salmonella enterica subsp. enterica serovar Typhimurium. Conditions: Salmonella enterica.
Assay [15] relates to Klebsiella aerogenes. Description: In vitro antimicrobial activity against Klebsiella aerogenes 1522 E. Format: functional.
Assay [16] has as its system Staphylococcus aureus. The assay is described as follows: In vitro antimicrobial activity against Methicillin resistant Staphylococcus aureus (MRSA). Format: functional.
For assay [17], the system named is Streptococcus pyogenes. Description: Compound has been evaluated for in vitro antimicrobial activity against Streptococcus pyogenes A 308. Format: functional.
Assay [18] has as its system Escherichia coli. The assay is described as follows: In vitro antimicrobial activity against Escherichia coli DC 2. Type of assay: functional.
The subject of assay [19] is Klebsiella oxytoca. Description: In vitro antimicrobial activity against Klebsiella oxytoca 1082. Format: functional.
The test system of assay [20] is Enterobacter cloacae. Description: In vitro antimicrobial activity against Enterobacter 1321 E. Format: functional.
The subject of assay [21] is Pseudomonas aeruginosa. The assay is described as follows: In vitro antimicrobial activity against Pseudomonas aeruginosa 1592 E. Format: functional.
Assay [22] has as its system Streptococcus pyogenes. The assay is described as follows: In vitro antimicrobial activity against Streptococcus pyogenes A 308. Format: functional.

On to `CO/N=C(/C(=O)NC1C(=O)N2C(C(=O)[O-])=C(C[n+]3cccc4c3CCC4)CSC12)c1csc(N)n1` (stereo not drawn), for which the MIC was 1.56 µg/mL (≈ 3.04 µM) in assay [1]; 0.195 µg/mL (≈ 0.379 µM) in [2]; 3.12 µg/mL (≈ 6.07 µM) in assay [3]; 0.391 µg/mL (≈ 0.76 µM) in assay [4]; 0.025 µg/mL (≈ 0.0486 µM) in assay [5]; 0.013 µg/mL (≈ 0.0253 µM) in assay [6]. Moreover, the MIC amounted to 0.007 µg/mL (≈ 0.0136 µM) in assay [7]; 0.781 µg/mL (≈ 1.52 µM) in [8]; 0.781 µg/mL (≈ 1.52 µM) in [9]; 0.025 µg/mL (≈ 0.0486 µM) in [10]; 0.098 µg/mL (≈ 0.19 µM) in assay [11]; 0.049 µg/mL (≈ 0.0952 µM) in [12]. Besides, the MIC in [13] turned out to be 3.12 µg/mL (≈ 6.07 µM); in assay [14] it was 0.025 µg/mL (≈ 0.0486 µM); in assay [15], 0.025 µg/mL (≈ 0.0486 µM); in [16] it was 25 µg/mL (≈ 48.6 µM); in [17], 0.007 µg/mL (≈ 0.0136 µM); in assay [18] it was 0.013 µg/mL (≈ 0.0253 µM). Further, the results for the MIC in assay [19], in [20] and in [21] were 1.56 µg/mL (≈ 3.04 µM), 0.013 µg/mL (≈ 0.0253 µM) and 1.56 µg/mL (≈ 3.04 µM), respectively.
`CO/N=C(/C(=O)N[C@@H]1C(=O)N2C(C(=O)[O-])=C(C[n+]3cccc(-c4cc(N)[nH]n4)c3)CS[C@H]12)c1csc(N)n1`: the MIC in [1] turned out to be 1.56 µg/mL (≈ 2.81 µM); in assay [2], 0.195 µg/mL (≈ 0.351 µM); in assay [3], 3.12 µg/mL (≈ 5.62 µM); in assay [4], 0.391 µg/mL (≈ 0.704 µM); in assay [5], 0.025 µg/mL (≈ 0.045 µM); in assay [6], 0.025 µg/mL (≈ 0.045 µM). The MIC was determined as 0.007 µg/mL (≈ 0.0126 µM) in [7]; 0.781 µg/mL (≈ 1.41 µM) in assay [8]; 0.781 µg/mL (≈ 1.41 µM) in assay [9]; 0.013 µg/mL (≈ 0.0234 µM) in [10]; 0.007 µg/mL (≈ 0.0126 µM) in assay [22]; 0.195 µg/mL (≈ 0.351 µM) in assay [11]. Moreover, the MIC was found to be 0.049 µg/mL (≈ 0.0882 µM) in assay [12]; 50 µg/mL (≈ 90 µM) in [13]; 0.049 µg/mL (≈ 0.0882 µM) in assay [14]; 0.025 µg/mL (≈ 0.045 µM) in assay [15]; 25 µg/mL (≈ 45 µM) in [16]; 0.013 µg/mL (≈ 0.0234 µM) in [18]. Moreover, the MIC in assay [19] was 1.56 µg/mL (≈ 2.81 µM); in assay [20] it was 0.013 µg/mL (≈ 0.0234 µM); in [21] it was 1.56 µg/mL (≈ 2.81 µM).
Regarding `CO/N=C(/C(=O)N[C@@H]1C(=O)N2C(C(=O)[O-])=C(C[n+]3cccc(-c4cc(C(N)=O)nn4CCO)c3)CS[C@H]12)c1csc(N)n1`, the MIC was found to be 6.25 µg/mL (≈ 9.96 µM) in [1]; 0.781 µg/mL (≈ 1.24 µM) in [2]; 25 µg/mL (≈ 39.8 µM) in [3]; 1.56 µg/mL (≈ 2.49 µM) in [4]; 0.195 µg/mL (≈ 0.311 µM) in assay [5]; 0.098 µg/mL (≈ 0.156 µM) in [6]. The MIC in assay [7] stood at 0.025 µg/mL (≈ 0.0398 µM); in [8], 3.12 µg/mL (≈ 4.98 µM); in assay [9] it was 3.12 µg/mL (≈ 4.98 µM); in [10], 0.098 µg/mL (≈ 0.156 µM); in assay [22] it was 0.049 µg/mL (≈ 0.0781 µM); in assay [11], 0.781 µg/mL (≈ 1.24 µM). Also, the MIC in assay [12] is 0.391 µg/mL (≈ 0.623 µM); in assay [13], 50 µg/mL (≈ 79.7 µM); in assay [14], 0.098 µg/mL (≈ 0.156 µM); in assay [15] it was 0.098 µg/mL (≈ 0.156 µM); in assay [16] it was 25 µg/mL (≈ 39.8 µM); in assay [18], 0.098 µg/mL (≈ 0.156 µM). Moreover, the values for the MIC in [19], in assay [20] and in assay [21] were 6.25 µg/mL (≈ 9.96 µM), 0.049 µg/mL (≈ 0.0781 µM) and 12.5 µg/mL (≈ 19.9 µM), respectively.
